# Read-outs that look alike come from different tables or passages of the source.
# Experiments:
# native Factor XIa = target: T1, native Factor XIa (Homo sapiens, UniProt P03951); experiment: Factor XIa enzyme inhibition assay (fluorogenic substrate pyroGlu-Pro-Arg-AMC); type: biochemical
# T1 construct: cleavage generates the same light chain segment as is found for human Factor XIa protein; purchased Haematological Associates FXIA01
# Description: Potential inhibitors of Factor XIa were evaluated using a modification of the above assay. […] This substrate had the p-nitroanaline group replaced with 7-methylaminocoumarin (AMC). […] Inhibitors were tested by serial dilution over an appropriate range to yield a dose response curve for determination of the inhibitors' IC50 values. The assay mixture was incubated for 30 minutes at 30° C., and the fluorescent yield was measured using a PE-Wallac Victor 2 Plate Reader. Dose response curves were fit to Equation 1 in which A is the maximum inhibition, B is the minimum inhibition, C is the IC50, and D is the Hill coefficient.
# Potential inhibitors of Factor XIa were evaluated using the following assay. […] This substrate had the p-nitroanaline group replaced with 7-methylaminocoumarin (AMC).
# Inhibitors were tested by serial dilution over an appropriate range to yield a dose response curve for determination of the inhibitors' IC50 value. The assay mixture was incubated for 30 minutes at 30° C., and the fluorescent yield measured using a PE-Wallac VICTOR2™ Plate Reader. Dose response curves were fit to equation 1 below in which A is the maximum inhibition, B is the minimum inhibition, C is the IC50, and D is the Hill coefficient.
# thrombin = thrombin (Homo sapiens, UniProt P00734); experiment: Thrombin enzyme inhibition assay (purified enzyme); type: biochemical
# Factor Xa = Factor Xa (Homo sapiens, UniProt P00742); experiment: Factor Xa enzyme inhibition assay (purified enzyme); type: biochemical
# Factor Xa, sequence (P00742 235-488 limits assumed): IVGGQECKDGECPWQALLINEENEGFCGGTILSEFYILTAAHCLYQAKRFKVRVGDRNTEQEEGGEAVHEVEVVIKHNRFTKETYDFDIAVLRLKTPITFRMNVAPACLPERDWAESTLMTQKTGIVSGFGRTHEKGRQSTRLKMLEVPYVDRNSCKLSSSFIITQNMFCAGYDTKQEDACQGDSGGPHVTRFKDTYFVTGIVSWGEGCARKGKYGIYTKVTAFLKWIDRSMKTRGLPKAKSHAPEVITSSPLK
# Factor Xa, sequence (P00742 41-179 partner limits assumed): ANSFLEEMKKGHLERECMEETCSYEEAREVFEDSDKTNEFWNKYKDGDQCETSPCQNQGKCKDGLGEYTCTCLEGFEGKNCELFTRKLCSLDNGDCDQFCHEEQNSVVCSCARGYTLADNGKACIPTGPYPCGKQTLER
# venous thrombosis = experiment: Rat venous thrombosis model (stenosis of inferior vena cava with hypotonic saline infusion); type: in vivo
# Description: Compound 22 was administered as a continuous intravenous infusion via the femoral vein commenced 15 minutes prior to the thrombotic challenge. Thrombus mass was assessed at 60 minutes following challenge. Results are expressed as the percentage of the vehicle mean.
# Briefly, male Sprague-Dawley rats (300–400 g) were anesthetized using ketamine/xylazine I.M. A midline laparotomy was performed, and the vena cava was visualized and gently separated from the descending aorta using cotton swabs. Both iliolumbar veins were ligated with suture (3–0 silk). A loose ligature (3–0 silk) was placed around the vena cava distal to the renal veins. A 25G butterfly bent at a 90-degree angle and attached to a 5 cc syringe filled with 2.5 mL of hypotonic saline (0.225%) was inserted into the vena cava at the level of the iliolumbar veins and glued into place using VETBOND™. A 26G needle bent to a 90-degree angle was then tied tightly to the vena cava, using the loose ligature. An atraumatic clamp was placed on the vena cava proximal to the iliac bifurcation, and the hypotonic saline manually infused at a rate of 10 mL/minutes. The atraumatic clamp was removed, along with the 26G needle, creating a 26G stenosis. Organs were carefully replaced, and animals were kept normothermic until sacrifice. Animals were sacrificed by anesthetic overdose at 10 or 60 minutes post thrombus induction. Following sacrifice, the vena cava was isolated using hemostats, and the clot(s) was dissected out. Clots were removed, blotted on gauze, and then immediately weighed using an analytical balance.
# Compounds under investigation along with vehicles and positive controls (heparin, enoxaparin) were administered intravenously via a catheter (PE-50 tubing) implanted in the jugular or femoral vein. In some studies, rats were administered a bolus of the test article (4 mL/kg) via the venous catheter immediately prior to initiation of intravenous infusion (4 mL/kg/h). The rats were subjected to the challenge 15 minutes post bolus/infusion initiation. All test article infusions continued to the end of the study period.
# Administration of compound XLXI commenced 15 minutes prior to thrombotic challenge, with determination of thrombus mass at 60 minutes post challenge.
# rat Factor XIa = experiment: Inhibition of rat Factor XIa compared with native human Factor XIa; type: biochemical; details: rat Factor XIa vs native human Factor XIa
# [1] = Table 12, read-out: Thrombin IC50
# [2] = Table 12, compounds of formula I (R^0 is 2-thiazole), read-out: FXIa IC50
# T1 sequence (P03951 388-625 limits assumed): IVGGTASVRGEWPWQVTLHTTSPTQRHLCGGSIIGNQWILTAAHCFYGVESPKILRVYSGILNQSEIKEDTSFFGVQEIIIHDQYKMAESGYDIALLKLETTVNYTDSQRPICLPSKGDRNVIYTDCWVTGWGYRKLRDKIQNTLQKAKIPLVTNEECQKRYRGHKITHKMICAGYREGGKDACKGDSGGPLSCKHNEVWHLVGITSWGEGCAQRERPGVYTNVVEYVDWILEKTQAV
# T1 sequence (P03951 19-387 partner limits assumed): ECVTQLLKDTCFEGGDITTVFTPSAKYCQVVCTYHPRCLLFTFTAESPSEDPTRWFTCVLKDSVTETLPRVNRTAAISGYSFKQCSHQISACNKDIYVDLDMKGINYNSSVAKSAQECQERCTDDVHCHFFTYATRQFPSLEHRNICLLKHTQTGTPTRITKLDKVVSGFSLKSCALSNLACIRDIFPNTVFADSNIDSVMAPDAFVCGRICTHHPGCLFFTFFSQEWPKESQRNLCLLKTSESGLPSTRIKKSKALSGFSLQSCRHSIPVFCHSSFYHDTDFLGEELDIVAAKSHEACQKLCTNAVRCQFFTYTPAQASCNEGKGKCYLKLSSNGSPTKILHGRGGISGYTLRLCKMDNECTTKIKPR
Structure (SMILES),IC50 (thrombin; [1]) [nM],"IC50 (Factor Xa; Table 12, read-out: FXa IC50) [nM]",IC50 (native Factor XIa; [2]) [nM],IC50 (native Factor XIa) [nM],further results
CC(C)CC(NC(=O)NCc1ccc(Cl)c(Cl)c1)C(=O)NC(C(=O)NC(CCCNC(=N)N)C(=O)c1nccs1)C(C)C (stereo not shown),615,20000,–,64,–
COC(=O)c1cccc(CS(=O)(=O)NC(C(=O)NC(CC(C)C)C(=O)NC(CCCNC(=N)N)C(=O)c2nccs2)C2CCCCC2)c1 (stereo not shown),20,31,5,–,–
CCC(C)C(NC(=O)C(CC(C)C)NC(=O)NCc1ccc(Cl)c(Cl)c1)C(=O)NC(CCCNC(=N)N)C(=O)c1nccs1 (stereo not shown),–,–,–,78,IC50 (thrombin): 2650 nM; IC50 (Factor Xa): 84900 nM
CC(C)[C@H](NC(=O)[C@H](Cc1cccnc1)NC(=O)N[C@H](C)c1ccc(Br)cc1)C(=O)N[C@@H](CCCNC(=N)N)C(=O)c1nccs1 [Compound 22],–,–,–,–,"effect on thrombus formation (venous thrombosis; continuous intravenous administration begun 15 minutes before thrombotic challenge, thrombus mass at 60 minutes post challenge): suppressed the thrombus formation; total dose exposure at which efficacy was observed (venous thrombosis; continuous intravenous infusion, thrombus mass at 60 minutes post challenge): 1.4 mg/kg; efficacy in rat model of venous thrombosis (venous thrombosis; intravenous): statistically significant efficacy; change in thrombus size at the higher dose (venous thrombosis; total dose exposure 4.0 mg/kg compared with 1.4 mg/kg): no further decrease in thrombus size; specificity for rat Factor XIa relative to native human Factor XIa (fold less) (rat Factor XIa): 11 fold"

# Second part, led by results:
IC50 (thrombin; [1]) [nM],"IC50 (Factor Xa; Table 12, read-out: FXa IC50) [nM]",IC50 (native Factor XIa; [2]) [nM],Structure (SMILES),IC50 (native Factor XIa) [nM],further results
225,2360,116,CC(C)C(NC(=O)C(O)c1cccc(Cl)c1)C(=O)NC(CCCNC(=N)N)C(=O)c1nccs1 (stereo not shown),–,–
253,1190,–,CC(C)C(NC(=O)C(O)c1ccccc1)C(=O)NC(CCCNC(=N)N)C(=O)c1nccs1 (stereo not shown),–,–

# — patent US7217794B2, “Compounds and methods for treatment of thrombosis” (Daiamed, Inc., priority 2003, dated 2007)
